Measured values from US20250041327A1, “COMPOSITIONS FOR PREVENTING OR FOR REDUCING RISK OF […] INFECTIOUS DISEASES” (priority 2021, published 2025).

Experiments:
ZO-1 = type: cell-based, human; conditions: A549 cells, EPS pre-treatment study; BXA 250 nM; viral-infection vs non-viral infection group
occludin = type: cell-based, human; conditions: A549 cells, EPS pre-treatment study; BXA 250 nM; viral-infection vs non-viral infection group
claudin-1 = type: cell-based, human; conditions: A549 cells, EPS pre-treatment study; BXA 250 nM; viral-infection vs non-viral infection group
E-cadherin = type: cell-based, human; conditions: A549 cells, EPS pre-treatment study; BXA 250 nM; viral-infection vs non-viral infection group
ICAM-1 = type: cell-based, human; conditions: infected A549 cells, 1×10^5 pfu virus; BXA 250 nM
VCAM-1 = type: cell-based, human; conditions: infected A549 cells, 1×10^5 pfu virus; BXA 250 nM
fibronectin = type: cell-based, human; conditions: infected A549 cells, 1×10^5 pfu virus; BXA 250 nM
PAF-r = type: cell-based, human; conditions: infected A549 cells, 1×10^5 pfu virus; BXA 250 nM
E-selectin = type: cell-based, human; conditions: infected A549 cells, 1×10^5 pfu virus; BXA 250 nM
[1] = test system: S. aureus strain ATCC 29213; type: cell-based; conditions: 1×10^5 pfu virus, 1×10^5 cfu S. aureus for 1 hour; 400 μg EPS or 250 nM BXA per well; compared with virus-infected cells without treatment
CEACAM-1 = CEACAM-1 mRNA expression in virus-infected A549 cells (quantitative RT-PCR); conditions: 1×10^5 pfu virus, 1 hour with EPS then 6 hours, BXA 250 nM, compared with virus-infected cells

## O=C1c2c(O)c(=O)ccn2N([C@@H]2c3ccccc3SCc3c2ccc(F)c3F)[C@@H]2COCCN12 [BXA, baloxavir acid]
ZO-1
  ZO-1 mRNA expression: no difference
occludin
  occludin mRNA expression: no difference
claudin-1
  claudin-1 mRNA expression: no difference
E-cadherin
  E-cadherin mRNA expression: no difference
ICAM-1
  ICAM-1 mRNA expression: not changed
VCAM-1
  VCAM-1 mRNA expression: not changed
fibronectin
  fibronectin mRNA expression: not changed
PAF-r
  PAF-r mRNA expression: not changed
E-selectin
  E-selectin mRNA expression: not changed
[1]
  numbers of adhered bacteria on virus-infected A549 cells: did not decrease
CEACAM-1
  CEACAM-1 mRNA expression increased by influenza virus infection: significantly reduced
